Test results published in patent US20230079819A1, “COMPOUNDS AND USES THEREOF” (Foghorn Therapeutics Inc., priority 2019, published 2023).

Tests used:
[1] = target: T1, BRM (Homo sapiens, UniProt P51531); assay: ATPase catalytic activity of BRM, ADP-Glo in vitro biochemical assay; settings: ATPase catalytic activity, 30 nM BRM, 400 μM ATP, read-out: BRM IP50 (μM)*
T1 construct: made in house; host or cells: High Five insect cells

[2] = target: T2, BRG-1 (Homo sapiens, UniProt P51532); assay: ATPase catalytic activity of BRG-1, ADP-Glo in vitro biochemical assay; settings: ATPase catalytic activity, 30 nM BRG-1, 400 μM ATP, read-out: BRG1 IP50 (μM)*
T2 construct: made in house; host or cells: High Five insect cells
T2 sequence (P51532 whole entry): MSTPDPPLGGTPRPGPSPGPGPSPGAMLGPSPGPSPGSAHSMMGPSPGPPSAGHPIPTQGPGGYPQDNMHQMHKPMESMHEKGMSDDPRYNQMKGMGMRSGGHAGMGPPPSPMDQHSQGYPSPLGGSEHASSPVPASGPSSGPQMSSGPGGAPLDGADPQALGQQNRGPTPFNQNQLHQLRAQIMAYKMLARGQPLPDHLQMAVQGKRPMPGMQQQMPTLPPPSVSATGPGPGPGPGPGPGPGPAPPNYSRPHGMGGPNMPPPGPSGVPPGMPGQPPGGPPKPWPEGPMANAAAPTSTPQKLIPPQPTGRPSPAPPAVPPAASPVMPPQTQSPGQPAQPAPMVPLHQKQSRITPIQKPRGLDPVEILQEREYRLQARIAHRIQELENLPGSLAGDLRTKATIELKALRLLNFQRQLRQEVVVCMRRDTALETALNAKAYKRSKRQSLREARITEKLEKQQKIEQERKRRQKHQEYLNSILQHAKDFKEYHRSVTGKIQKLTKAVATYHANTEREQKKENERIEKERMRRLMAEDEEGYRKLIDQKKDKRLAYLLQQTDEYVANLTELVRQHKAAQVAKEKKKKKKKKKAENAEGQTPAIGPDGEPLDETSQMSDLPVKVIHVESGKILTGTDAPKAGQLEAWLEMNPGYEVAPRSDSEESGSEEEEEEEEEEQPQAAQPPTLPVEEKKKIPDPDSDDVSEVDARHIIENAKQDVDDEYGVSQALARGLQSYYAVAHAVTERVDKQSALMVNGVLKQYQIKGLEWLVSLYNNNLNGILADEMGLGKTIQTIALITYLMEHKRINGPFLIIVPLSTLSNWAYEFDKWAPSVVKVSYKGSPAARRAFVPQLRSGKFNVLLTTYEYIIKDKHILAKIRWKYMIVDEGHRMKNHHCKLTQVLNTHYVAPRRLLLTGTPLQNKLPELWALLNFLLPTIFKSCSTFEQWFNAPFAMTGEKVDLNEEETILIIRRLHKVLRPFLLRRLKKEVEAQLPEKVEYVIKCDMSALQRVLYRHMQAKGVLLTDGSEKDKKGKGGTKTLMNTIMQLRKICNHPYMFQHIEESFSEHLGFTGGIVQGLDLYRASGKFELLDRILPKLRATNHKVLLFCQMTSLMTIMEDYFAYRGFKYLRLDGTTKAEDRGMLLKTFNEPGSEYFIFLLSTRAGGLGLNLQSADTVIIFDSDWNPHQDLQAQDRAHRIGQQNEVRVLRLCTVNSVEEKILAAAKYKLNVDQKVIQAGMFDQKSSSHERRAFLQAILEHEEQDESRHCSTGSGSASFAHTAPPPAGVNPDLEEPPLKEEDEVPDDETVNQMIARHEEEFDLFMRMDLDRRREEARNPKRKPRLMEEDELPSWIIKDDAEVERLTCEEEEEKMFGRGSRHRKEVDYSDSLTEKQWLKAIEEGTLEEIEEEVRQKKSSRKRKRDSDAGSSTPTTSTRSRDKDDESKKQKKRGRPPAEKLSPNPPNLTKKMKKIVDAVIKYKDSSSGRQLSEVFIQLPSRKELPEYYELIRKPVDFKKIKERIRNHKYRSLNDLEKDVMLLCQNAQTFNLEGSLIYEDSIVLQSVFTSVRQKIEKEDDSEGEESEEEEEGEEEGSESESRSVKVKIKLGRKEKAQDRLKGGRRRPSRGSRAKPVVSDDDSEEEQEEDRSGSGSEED

T1 sequence (P51531 whole entry): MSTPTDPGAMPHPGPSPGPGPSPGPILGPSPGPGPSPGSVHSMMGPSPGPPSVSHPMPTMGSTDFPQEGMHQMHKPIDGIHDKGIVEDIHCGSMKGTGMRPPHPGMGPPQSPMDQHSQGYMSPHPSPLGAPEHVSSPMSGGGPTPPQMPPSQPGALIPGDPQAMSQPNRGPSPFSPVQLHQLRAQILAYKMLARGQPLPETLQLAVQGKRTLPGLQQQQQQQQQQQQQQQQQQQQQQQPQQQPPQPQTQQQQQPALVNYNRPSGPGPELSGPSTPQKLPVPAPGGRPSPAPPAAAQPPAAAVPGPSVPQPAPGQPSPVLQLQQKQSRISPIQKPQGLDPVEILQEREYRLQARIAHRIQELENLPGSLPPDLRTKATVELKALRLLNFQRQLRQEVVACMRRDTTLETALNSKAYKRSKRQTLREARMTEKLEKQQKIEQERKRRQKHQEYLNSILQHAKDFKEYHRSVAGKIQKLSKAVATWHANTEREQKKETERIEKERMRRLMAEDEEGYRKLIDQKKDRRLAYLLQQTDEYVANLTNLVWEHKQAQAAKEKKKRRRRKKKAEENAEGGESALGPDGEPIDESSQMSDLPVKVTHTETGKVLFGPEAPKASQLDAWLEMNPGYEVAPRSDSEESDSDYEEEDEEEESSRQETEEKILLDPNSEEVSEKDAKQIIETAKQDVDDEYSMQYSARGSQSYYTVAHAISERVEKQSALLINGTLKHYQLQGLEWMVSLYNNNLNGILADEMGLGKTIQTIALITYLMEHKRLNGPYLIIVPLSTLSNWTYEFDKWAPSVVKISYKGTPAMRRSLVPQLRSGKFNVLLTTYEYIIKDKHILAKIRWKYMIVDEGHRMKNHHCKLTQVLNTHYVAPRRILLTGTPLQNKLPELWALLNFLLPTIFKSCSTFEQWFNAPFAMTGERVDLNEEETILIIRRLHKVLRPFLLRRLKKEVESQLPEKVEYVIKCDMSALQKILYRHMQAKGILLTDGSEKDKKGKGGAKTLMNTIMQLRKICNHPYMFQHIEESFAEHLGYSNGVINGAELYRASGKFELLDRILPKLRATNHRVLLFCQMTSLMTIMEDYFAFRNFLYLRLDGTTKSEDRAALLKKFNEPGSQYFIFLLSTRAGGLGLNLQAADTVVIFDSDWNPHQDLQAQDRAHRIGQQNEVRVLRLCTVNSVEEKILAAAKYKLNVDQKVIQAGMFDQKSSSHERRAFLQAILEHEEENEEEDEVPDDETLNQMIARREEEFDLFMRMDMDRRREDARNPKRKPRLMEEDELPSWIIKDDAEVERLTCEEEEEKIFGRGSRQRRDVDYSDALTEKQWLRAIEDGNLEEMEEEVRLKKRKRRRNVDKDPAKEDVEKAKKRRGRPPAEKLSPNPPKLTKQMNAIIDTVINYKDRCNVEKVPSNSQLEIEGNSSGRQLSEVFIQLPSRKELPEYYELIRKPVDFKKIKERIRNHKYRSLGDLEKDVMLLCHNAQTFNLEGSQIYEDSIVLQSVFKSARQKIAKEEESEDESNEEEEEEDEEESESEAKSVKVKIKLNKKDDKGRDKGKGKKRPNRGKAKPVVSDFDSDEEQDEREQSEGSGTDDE

Row | SMILES | IC50 [1] [µM] | IC50 [2] [µM]
1 | C[C@@H]1COCCN1c1cccc(-c2csc(NC(=O)CNC(=O)c3ccn(S(C)(=O)=O)c3)n2)c1 [Compound 239] | > 0.01 | > 0.01
2 | CS(=O)(=O)n1ccc(C(=O)NCC(=O)Nc2nc(-c3cccc(N4CCC(F)(F)CC4)c3)cs2)c1 [Compound 241] | > 0.01 | > 0.1
3 | CS(=O)(=O)n1ccc(C(=O)NCC(=O)Nc2nc(-c3cccc(N4CCCCC4)c3)cs2)c1 [Compound 242] | > 0.01 | > 0.01
4 | CC1(O)CCN(c2cccc(-c3csc(NC(=O)CNC(=O)c4ccn(S(C)(=O)=O)c4)n3)c2)CC1 [Compound 243] | > 0.01 | > 0.1
5 | COC[C@@H]1CCCN(c2cccc(-c3csc(NC(=O)CNC(=O)c4ccn(S(C)(=O)=O)c4)n3)c2)C1 [Compound 244] | > 0.01 | > 0.01
6 | CC(C)(C)n1ccc(C(=O)NCC(=O)Nc2nc(-c3cccc(N4CC5(COC5)C4)c3)cs2)c1 [Compound 245] | > 0.01 | > 0.01
7 | COC1CN(c2cccc(-c3csc(NC(=O)CNC(=O)c4ccn(S(C)(=O)=O)c4)n3)c2)C1 [Compound 246] | < 0.01 | > 0.01
8 | Cc1cccc(-c2csc(NC(=O)CNC(=O)c3ccn(S(C)(=O)=O)c3)n2)c1 [Compound 247] | > 0.01 | > 0.01
9 | CS(=O)(=O)n1ccc(C(=O)NCC(=O)Nc2nc(-c3cccc(C(F)F)c3)cs2)c1 [Compound 248] | > 0.01 | > 0.01
10 | CC1Cc2ccc(-c3csc(NC(=O)CNC(=O)c4ccn(S(C)(=O)=O)c4)n3)cc2O1 (stereo not shown) [Compound 249] | > 0.01 | > 0.01
11 | COCCN1CCc2ccc(-c3csc(NC(=O)CNC(=O)c4ccn(S(C)(=O)=O)c4)n3)cc21 [Compound 250] | > 0.01 | > 0.01
12 | CO[C@H]1C[C@H](Oc2cccc(-c3csc(NC(=O)CNC(=O)c4ccn(S(C)(=O)=O)c4)n3)c2)C1 [Compound 252] | > 0.01 | > 0.01
13 | CS(=O)(=O)n1ccc(C(=O)NCC(=O)Nc2nc(-c3cc(F)c4ccoc4c3)cs2)c1 [Compound 253] | > 0.01 | > 0.01
14 | CO[C@H]1C[C@@H](Oc2cccc(-c3csc(NC(=O)CNC(=O)c4ccn(S(C)(=O)=O)c4)n3)c2)C1 [Compound 254] | > 0.01 | > 0.01
15 | CS(=O)(=O)n1ccc(C(=O)NCC(=O)Nc2nc(-c3cc(F)c4c(c3)OCC4)cs2)c1 [Compound 255] | < 0.01 | < 0.01
16 | CS(=O)(=O)n1ccc(C(=O)NCC(=O)Nc2nc(-c3cccc(C4(F)CCC4)c3)cs2)c1 [Compound 256] | > 0.01 | > 0.01
17 | CO[C@]1(C)CCCN(c2cccc(-c3csc(NC(=O)CNC(=O)c4ccn(S(C)(=O)=O)c4)n3)c2)C1 [Compound 257] | > 0.01 | > 0.01
18 | CO[C@@]1(C)CCCN(c2cccc(-c3csc(NC(=O)CNC(=O)c4ccn(S(C)(=O)=O)c4)n3)c2)C1 [Compound 258] | > 0.01 | > 0.01
19 | CN1CCOCc2ccc(-c3csc(NC(=O)CNC(=O)c4ccn(S(C)(=O)=O)c4)n3)cc21 [Compound 259] | > 0.01 | > 0.01
20 | CS(=O)(=O)n1ccc(C(=O)NCC(=O)Nc2nc(-c3cc(Cl)cc(OC4CC4)c3)cs2)c1 [Compound 260] | > 0.01 | > 0.01
21 | Cn1ncc(-c2cccc(-c3csc(NC(=O)CNC(=O)c4ccn(S(C)(=O)=O)c4)n3)c2)n1 [Compound 261] | < 0.01 | < 0.01
22 | COc1ccncc1-c1cccc(-c2csc(NC(=O)CNC(=O)c3ccn(C4(C)COC4)c3)n2)n1 [Compound 262, N-[2-[[4-[6-(4-methoxy-3-pyridyl)-2-pyridyl]thiazol-2-yl]amino]-2-oxo-ethyl]-1-(3-methyloxetan-3-yl)pyrrole-3-carboxamide] | > 0.01 | > 0.01
23 | CN1CCc2ccc(-c3csc(NC(=O)CNC(=O)c4ccn(C(C)(C)C)c4)n3)cc21 [Compound 263] | > 0.01 | > 0.01
